We go through 24 compounds from patent publication US20250345446A1 (Draupnir Bio ApS, priority 2022, published 2025).

Residues, ends and D or L forms follow the SMILES beside them. No end group written: not given here.

The term Kd denotes the equilibrium constant for the complex coming apart.

One assay concerns the target T1, soluble ectodomain of sortilin-6his (Homo sapiens, UniProt Q99523, V650M).
T1 construct: the soluble ectodomain of sortilin-6his is measured by microscale thermophoresis (MST)
The assay is described as follows: MST binding to soluble ectodomain of sortilin-6his. The note with it: Table 3; monofunctional peptides; MST; read-out: KD score, binding to sortilin (Kd). The procedure:
At this point the plate was sealed with adhesive strip and placed on an Eppendorf thermomixer to shake at 600 rpm for 3 min before spinning on a Fisherbrand plate-spinner for 15 seconds and further incubation 1 hrs at 19° C. MST was measured on a Monolith NT. Automated (Nanotemper) in standard-treated capillaries at 5% LED-power and high MST-power. Dose-response was extracted from the raw thermographs at 20 sec hot-time and the dissociation constant was estimated by sigmoidal curve fitting in MO. Affinity analysis program (Nanotemper). All experiments were run in duplicates.
For `CC(C)C[C@H](NC(=O)[C@H](Cc1ccc(O)cc1)NC(=O)[C@H](CCC(N)=O)NC(=O)[C@@H](N)CCCNC(=N)N)C(=O)O` [compound 39] (H-RQYL-OH), the Kd lay within 250 to 2500 nM.
Same read-out and setting: under `CC[C@H](C)[C@H](NC(=O)[C@H](CC(C)C)NC(=O)[C@H](CCC(N)=O)NC(=O)[C@@H](N)CCCNC(=N)N)C(=O)O` [compound 163] (H-RQLI-OH) stands greater than 2500 nM; under `CC[C@H](C)[C@H](NC(=O)[C@H](Cc1ccc(O)cc1)NC(=O)[C@@H](N)CCCNC(=N)N)C(=O)N[C@@H](CC(C)C)C(=O)O` [compound 32] (H-RYIL-OH), 250 to 2500 nM; under “H-ITVDPRLFKKRRLRSPRVLF-NH2 [compound 48]”, greater than 2500 nM.
Still for that read-out and setting: under REAPRWDAPLRDPALFQLL-OH [compound 58] stands less than 25 nM; under `CC(C)C[C@H](NC(=O)[C@H](CC(C)C)NC(=O)[C@H](CCC(N)=O)NC(=O)[C@@H](N)Cc1c[nH]cn1)C(=O)O` [compound 41] (H-HQLL-OH; N-terminus assumed), greater than 2500 nM.
Regarding `CC(C)C[C@H](NC(=O)[C@H](CC(C)C)NC(=O)[C@H](Cc1ccc(O)cc1)NC(=O)[C@@H]1CCCN1)C(=O)O` [compound 33] (H-PYLL-OH), the Kd is 250 to 2500 nM.
Still for that read-out and setting: under `CC(C)C[C@H](NC(=O)[C@H](Cc1ccc(O)cc1)NC(=O)[C@H](Cc1ccc(O)cc1)NC(=O)[C@@H](N)Cc1ccccc1)C(=O)O` [compound 43] (H-FYYL-OH; N-terminus assumed) stands greater than 2500 nM; under `CC(C)C[C@H](NC(=O)[C@H](CC(C)C)NC(=O)[C@H](CCC(N)=O)NC(=O)[C@@H](N)Cc1ccc(O)cc1)C(=O)O` [compound 29, YQLL-OH] (H-YQLL-OH), 25 to 250 nM.
Still for that read-out and setting: under `CC(C)C[C@H](NC(=O)[C@H](Cc1ccc(O)cc1)NC(=O)[C@H](Cc1ccc(O)cc1)NC(=O)[C@@H](N)CCCNC(=N)N)C(=O)O` [compound 36] (H-RYYL-OH) stands 25 to 250 nM.

The assay is the same for the next values; noted with them: Table 4; small molecule bifunctional compounds; MST.
For the compound `CC(C)(C)CC[C@H](NC(=O)COc1cccc(Oc2ccc(C(=O)NCCOCCOCCOCCOCc3cn(CCCCCOc4ncc(-c5ccc6c(n5)N(Cc5cccnc5C#N)C(C)(C)C6=O)cn4)nn3)cn2)c1)C(=O)O` [BF075, (2S)-2-[[2-[3-[[5-[2-[2-[2-[2-[[1-[5-[5-[1-[(2-cyano-3-pyridyl)methyl]-2,2-dimethyl-3-oxo-pyrrolo[2,3-b]pyridin-6-yl]pyrimidin-2-yl]oxypentyl]triazol-4-yl]methoxy]ethoxy]ethoxy]ethoxy]ethylcarbamoyl]-2-pyridyl]oxy]phenoxy]acetyl]amino]-5,5-dimethyl-hexanoic acid], the “KD score, binding to sortilin (Kd)” value turned out to be 0.

Still in this assay, the particulars now being: Table 4; small molecule bifunctional compounds; MST; read-out: KD score, binding to sortilin (Kd).
As for `C[C@@H]1CN(c2ncc(-c3ccc4c(n3)N(Cc3cccnc3C#N)C(C)(C)C4=O)cn2)CCN1C(=O)COCCCCCCNC(=O)COc1cccc(Oc2ccc(C(=O)N[C@@H](CCC(C)(C)C)C(=O)O)cn2)c1` [BF036], the Kd lay within 1 to 10 nM.
As to `CC(C)(C)CC[C@H](NC(=O)c1ccc(Oc2cccc(C(=O)NCCOCCOCCOCCOc3ncc(-c4ccc5c(n4)N(Cc4cccnc4C#N)C(C)(C)C5=O)cn3)c2)nc1)C(=O)O` [BF054], the dissociation constant (Kd) lay within 1 to 10 nM.
Turning to `C[C@@H]1CN(c2ncc(-c3ccc4c(n3)N(Cc3cccnc3C#N)C(C)(C)C4=O)cn2)CCN1C(=O)CNC(=O)CCCCCCCCn1cc(CCc2cccc(Oc3ccc(C(=O)N[C@@H](CCC(C)(C)C)C(=O)O)cn3)c2)nn1` [BF108, (2S)-2-[[6-[3-[2-[1-[9-[[2-[(2R)-4-[5-[1-[(2-cyano-3-pyridyl)methyl]-2,2-dimethyl-3-oxo-pyrrolo[2,3-b]pyridin-6-yl]pyrimidin-2-yl]-2-methyl-piperazin-1-yl]-2-oxo-ethyl]amino]-9-oxo-nonyl]triazol-4-yl]ethyl]phenoxy]pyridine-3-carbonyl]amino]-5,5-dimethyl-hexanoic acid], the Kd fell in the range of 1 to 10 nM.
Same read-out and setting: under `CC(C)(C)CC[C@H](NC(=O)c1ccc(Oc2cccc(C(=O)NCCOCCOCCOCCOCCOCCNc3ncc(-c4ccc5c(n4)N(Cc4cccnc4C#N)C(C)(C)C5=O)cn3)c2)nc1)C(=O)O` [BF067, (2S)-2-[[6-[3-[2-[2-[2-[2-[2-[2-[[5-[1-[(2-cyano-3-pyridyl)methyl]-2,2-dimethyl-3-oxo-pyrrolo[2,3-b]pyridin-6-yl]pyrimidin-2-yl]amino]ethoxy]ethoxy]ethoxy]ethoxy]ethoxy]ethylcarbamoyl]phenoxy]pyridine-3-carbonyl]amino]-5,5-dimethyl-hexanoic acid] stands less than 1 nM; under `CC(C)(C)CC[C@H](NC(=O)c1ccc(Oc2cccc(C(=O)NCCOCCNc3ncc(-c4ccc5c(n4)N(Cc4cccnc4C#N)C(C)(C)C5=O)cn3)c2)nc1)C(=O)O` [BF060, (2S)-2-[[6-[3-[2-[2-[[5-[1-[(2-cyano-3-pyridyl)methyl]-2,2-dimethyl-3-oxo-pyrrolo[2,3-b]pyridin-6-yl]pyrimidin-2-yl]amino]ethoxy]ethylcarbamoyl]phenoxy]pyridine-3-carbonyl]amino]-5,5-dimethyl-hexanoic acid], 1 to 10 nM.
On the same count and under the same terms, under `Cc1nc2cc(F)c(-c3cnc(OCCOCCOCCOCCOCCOCCOCCNC(=O)COc4cccc(Oc5ccc(C(=O)N[C@@H](CCC(C)(C)C)C(=O)O)cn5)c4)nc3)nc2c(N[C@H](C)c2cc(C#N)ccc2F)c1Cl` [BF085, (2S)-2-[[6-[3-[2-[2-[2-[2-[2-[2-[2-[2-[5-[7-chloro-8-[[(1R)-1-(5-cyano-2-fluoro-phenyl)ethyl]amino]-3-fluoro-6-methyl-1,5-naphthyridin-2-yl]pyrimidin-2-yl]oxyethoxy]ethoxy]ethoxy]ethoxy]ethoxy]ethoxy]ethylamino]-2-oxo-ethoxy]phenoxy]pyridine-3-carbonyl]amino]-5,5-dimethyl-hexanoic acid] stands 1 to 10 nM.
Regarding `CC(C)(C)CC[C@H](NC(=O)c1ccc(Oc2cccc(C(=O)NCCOCCOCCNc3ccc([N+](=O)[O-])cc3[N+](=O)[O-])c2)nc1)C(=O)O` [BF001, (2S)-2-[[6-[3-[2-[2-[2-(2,4-dinitroanilino)ethoxy]ethoxy]ethylcarbamoyl]phenoxy]pyridine-3-carbonyl]amino]-5,5-dimethyl-hexanoic acid], the Kd was in the range of 1 to 10 nM.
Still for that read-out and setting: under `C[C@@H]1CN(c2ncc(-c3ccc4c(n3)N(Cc3cccnc3C#N)C(C)(C)C4=O)cn2)CCN1C(=O)COCCNC(=O)COc1cccc(Oc2ccc(C(=O)N[C@@H](CCC(C)(C)C)C(=O)O)cn2)c1` [BF064, (S)-2-(6-(3-(2-((8-(2-((R)-4-(5-(1-((2-cyanopyridin-3-yl)methyl)-2,2-dimethyl-3-oxo-2,3-dihydro-1H-pyrrolo[2,3-b]pyridin-6-yl)pyrimidin-2-yl)-2-methylpiperazin-1-yl)-2-oxoethoxy)methyl)amino)-2-oxoethoxy)phenoxy)nicotinamido)-5,5-dimethylhexanoic acid] stands 1 to 10 nM.
The same measure, in the same setting: under `C[C@@H]1CN(c2ncc(-c3ccc4c(n3)N(Cc3cccnc3C#N)C(C)(C)C4=O)cn2)CCN1C(=O)COCCCCCCCCNc1cccc(Oc2ccc(C(=O)N[C@@H](CCC(C)(C)C)C(=O)O)cn2)c1` [BF038] stands greater than 250 nM; under `C[C@@H]1CN(c2ncc(-c3ccc4c(n3)N(Cc3cccnc3C#N)C(C)(C)C4=O)cn2)CCN1C(=O)Cn1cc(COCCOCCOCCOCCOCCOc2cccc(Oc3ccc(C(=O)N[C@@H](CCC(C)(C)C)C(=O)O)cn3)c2)nn1` [BF098, (2S)-2-[[6-[3-[2-[2-[2-[2-[2-[[1-[2-[(2R)-4-[5-[1-[(2-cyano-3-pyridyl)methyl]-2,2-dimethyl-3-oxo-pyrrolo[2,3-b]pyridin-6-yl]pyrimidin-2-yl]-2-methyl-piperazin-1-yl]-2-oxo-ethyl]triazol-4-yl]methoxy]ethoxy]ethoxy]ethoxy]ethoxy]ethoxy]phenoxy]pyridine-3-carbonyl]amino]-5,5-dimethyl-hexanoic acid], less than 1 nM; under `C[C@@H]1CN(c2ncc(-c3ccc4c(n3)N(Cc3cccnc3C#N)C(C)(C)C4=O)cn2)CCN1C(=O)COCCOCCOCCNC(=O)c1cccc(Oc2ccc(C(=O)N[C@@H](CCC(C)(C)C)C(=O)O)cn2)c1` [BF056, (2S)-2-[[6-[3-[2-[2-[2-[2-[(2R)-4-[5-[1-[(2-cyano-3-pyridyl)methyl]-2,2-dimethyl-3-oxo-pyrrolo[2,3-b]pyridin-6-yl]pyrimidin-2-yl]-2-methyl-piperazin-1-yl]-2-oxo-ethoxy]ethoxy]ethoxy]ethylcarbamoyl]phenoxy]pyridine-3-carbonyl]amino]-5,5-dimethyl-hexanoic acid], 10 to 250 nM.
Same read-out and setting: under `C[C@@H]1CN(c2ncc(-c3ccc4c(n3)N(Cc3cccnc3C#N)C(C)(C)C4=O)cn2)CCN1C(=O)Cn1cc(COCCOCCOCC(=O)N2CC(Oc3cccc(Oc4ccc(C(=O)N[C@@H](CCC(C)(C)C)C(=O)O)cn4)c3)C2)nn1` [BF111, (2S)-2-[[6-[3-[1-[2-[2-[2-[[1-[2-[(2R)-4-[5-[1-[(2-cyano-3-pyridyl)methyl]-2,2-dimethyl-3-oxo-pyrrolo[2,3-b]pyridin-6-yl]pyrimidin-2-yl]-2-methyl-piperazin-1-yl]-2-oxo-ethyl]triazol-4-yl]methoxy]ethoxy]ethoxy]acetyl]azetidin-3-yl]oxyphenoxy]pyridine-3-carbonyl]amino]-5,5-dimethyl-hexanoic acid] stands less than 1 nM.
For `C[C@@H]1CN(c2ncc(-c3ccc4c(n3)N(Cc3cccnc3C#N)C(C)(C)C4=O)cn2)CCN1C(=O)Cn1cc(COCCOCCOC2CN(CCOCCOc3cccc(Oc4ccc(C(=O)N[C@@H](CCC(C)(C)C)C(=O)O)cn4)c3)C2)nn1` [BF114, (2S)-2-[[6-[3-[2-[2-[3-[2-[2-[[1-[2-[(2R)-4-[5-[1-[(2-cyano-3-pyridyl)methyl]-2,2-dimethyl-3-oxo-pyrrolo[2,3-b]pyridin-6-yl]pyrimidin-2-yl]-2-methyl-piperazin-1-yl]-2-oxo-ethyl]triazol-4-yl]methoxy]ethoxy]ethoxy]azetidin-1-yl]ethoxy]ethoxy]phenoxy]pyridine-3-carbonyl]amino]-5,5-dimethyl-hexanoic acid], the Kd was less than 1 nM.
